Assay results from patent US9226926B2, “Therapeutic agent for lower urinary tract disease” (N.M.A. Co., Ltd., priority 2013, dated 2016).

What was measured:
Assay type in all cases: in vivo, SD rats
[1] = tested on: rat model of chronic cystitis; test: Conscious cystometrography in rat model of chronic cystitis (cyclophosphamide); conditions: 300 μL into the bladder, cyclophosphamide 150 mg/kg i.p., after two days
Method: In addition, experiments were performed for studying effects of the present invention on cystitis using a rat model of chronic cystitis. To 12-week old male SD rats, cyclophosphamide (150 mg/kg) was intraperitoneally administered under isoflurane anesthetization. Immediately after that, rebamipide (1 mM or 10 mM, 300 μL) or vehicle was injected into the bladder, and the rats were held in the supine position for 1 hour. (1) After two days, conscious cystometrography was performed (the saline perfusion flow rate: 0.04 ml/min) was performed.

[2] = tested on: IL-6; test: IL-6 in bladder tissue by RT-PCR; conditions: rebamipide group vs CYP group
Method: (§1) To 12-week old male SD rats, cyclophosphamide (150 mg/kg) was intraperitoneally administered under isoflurane anesthetization. Immediately after that, rebamipide (1 mM or 10 mM, 300 μL) or vehicle was injected into the bladder, and the rats were held in the supine position for 1 hour. (3) TNFα, IL-6 and IL-1β which are inflammatory cytokines in bladder tissue were measured by RT-PCR, and an inflammation marker, MPO, was measured by ELISA.

[3] = tested on: TNFα; test: TNFα in bladder tissue by RT-PCR; conditions: rebamipide group vs CYP group
Method: as §1

[4] = tested on: IL-1β; test: IL-1β in bladder tissue by RT-PCR; conditions: rebamipide group vs CYP group
Method: as §1

[5] = tested on: MPO; test: MPO inflammation marker in bladder tissue by ELISA; conditions: rebamipide group vs CYP group
Method: as §1

[6] = tested on: rat model of chronic cystitis; test: H&E staining of removed bladder to score the degree of inflammation
Method: To 12-week old male SD rats, cyclophosphamide (150 mg/kg) was intraperitoneally administered under isoflurane anesthetization. Immediately after that, rebamipide (1 mM or 10 mM, 300 μL) or vehicle was injected into the bladder, and the rats were held in the supine position for 1 hour. (2) After two days, the bladder was removed, and H&E stained to score the degree of inflammation

[7] = rebamipide group vs CYP group, after two days

In the case of `O=C(NC(Cc1cc(=O)[nH]c2ccccc12)C(=O)O)c1ccc(Cl)cc1` (stereo not drawn) [rebamipide, 2-(4-chlorbenzoylamino)-3-(2-quinolone-4-yl)propionic acid], the urination interval ([1]; 1 mM) is reported as 14.4 ± 2.1 min, the urination interval ([1]; 10 mM) is reported as 21.1 ± 2.5 min and the “level of IL-6 in the bladder tissue” value [2] is reported as “increase was suppressed”. For the same compound, the “level of TNFα in the bladder tissue” value [3] was “increase was suppressed”, the “level of IL-1β in the bladder tissue” value [4] was “increase was suppressed” and the “level of MPO in the bladder tissue” value [5] was “increase was suppressed”. For the same compound, the invasive inflammatory cells [6, 7] was “significantly reduced”, the submucosal edema [6, 7] was “significantly reduced” and the bladder inflammation ([6]; rebamipide injected into the bladder, summary) was “suppressed”.
